In patent US20250195483A1, “SPIRO PIPERIDINE DERIVATIVES AS INHIBITORS OF APOL1 AND METHODS OF USING SAME” (Vertex Pharmaceuticals Incorporated, priority 2022, published 2025):

Target: T1, APOL1 (Homo sapiens, UniProt O14791)
T1 sequence (O14791 1-398): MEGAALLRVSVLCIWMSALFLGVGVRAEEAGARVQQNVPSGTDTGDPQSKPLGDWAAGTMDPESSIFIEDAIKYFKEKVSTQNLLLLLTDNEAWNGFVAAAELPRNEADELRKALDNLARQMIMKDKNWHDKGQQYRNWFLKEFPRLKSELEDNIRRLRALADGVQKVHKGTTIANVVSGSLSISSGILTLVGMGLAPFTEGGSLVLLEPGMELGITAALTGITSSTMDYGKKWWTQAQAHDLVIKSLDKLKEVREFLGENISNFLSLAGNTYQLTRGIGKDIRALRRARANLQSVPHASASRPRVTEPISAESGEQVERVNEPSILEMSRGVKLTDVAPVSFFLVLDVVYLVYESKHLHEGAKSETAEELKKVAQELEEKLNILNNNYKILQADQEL
Experiment: MultiTox-Fluor Multiplex Cytotoxicity Assay, tet-inducible APOL1 T-REx-HEK293 cells (G0, G1 or G2 clone not specified for Table 20)
Type: cell-based
Conditions: tet-induced, 24 hours with compound, ratio of dead to live cells, read-out: IP50 (i.e., IC50 for cell proliferation)
Method: Human embryonic kidney (HEK293) cell lines containing a tet-inducible expression system (T-REx™; Invitrogen, Carlsbad, CA) and Adeno-associated virus site 1 pAAVS1-Puro-APOL1 G0 or pAAVS1-Puro-APOL1 G1 or pAAVS1-Puro-APOL1 G2 Clones G0 DC2.13, G1 DC3.25, and G2 DC4.44 were grown in a T-225 flask at ˜90% confluency in cell growth media (DMEM, 10% Tet-free FBS, 2 mM L-glutamine, 100 Units/mL penicillin-streptomycin, 5 μg/mL blasticidin S HCl, 1 μg/mL puromycin dihydrochloride). Cells were washed with DPBS and then trypsinized to dissociate from the flask. Media was used to quench the trypsin, cells were then pelleted at 200 g and resuspended in fresh cell assay media (DMEM, 2% Tet-free FBS, 2 mM L-glutamine, 100 Units/mL penicillin-streptomycin). Cells were counted and diluted to 1.17×10^6 cells/mL. 20 μL of cells (23,400/well) were dispensed in every well of a 384-well Poly-D-Lysine coated plate using the Multidrop dispenser. The plates were then incubated at room temperature for one hour.
Tetracycline is needed to induce APOL1 expression. 1 mg/mL tet stock in water was diluted to 250 ng/mL (5×) in cell assay media. 60 μL of cell assay media (no tet control) was dispensed in columns 1 and 24, and 60 μL of 5× tet in 384-PP-round bottom plate was dispensed in columns 2 to 23 with the Multidrop dispenser.
Assay ready plates from the Global Compound Archive were ordered using template 384_APOL1Cell_DR10n2_50 uM_v3. Compounds were dispensed at 200 nL in DMSO. The final top concentration was 10 μM with a 10 point 3-fold dilution in duplicate in the MultiTox assay.
20 μL was transferred from the 5× tet plate to the ARP and mixed, then 5 μL of 5× tet and the compounds were transferred to the cell plate and mixed using the Bravo. The cell plate was placed in the humidified 37° C. 5% CO2 incubator for 24 hours.
The MultiTox-Fluor Multiplex Cytotoxicity Assay was performed in accordance with the manufacturer's protocol. After cells were incubated with tet and compound for 24 hours, 25 μL of 1× MultiTox reagent was added to each well using the Multidrop dispenser; the plates were placed on a plate shaker (600 rpm) for 2 minutes, then centrifuged briefly and placed back in the 37° C. incubator for 30 minutes. The cell viability (excitation: 400 nm, emission: 486 nm) and cytotoxicity (excitation: 485 nm, emission: 535 nm) were read using the EnVision plate reader. A ratio of dead (cytotoxicity) to live (viability) cells was reported. Data was exported and analyzed in Genedata. Data was normalized using percent of control, no tet (100% viability), and 50 ng/mL tet treated (0% viability), and fit using Smart Fit settings in Genedata.

Structure (SMILES) | IC50
CNC(=O)C1OC2(CCN(Cc3cnn(-c4ccccc4)c3)CC2)c2cc(Cl)ccc21 (stereo not drawn) [Compound 195, 5-chloro-N-methyl-1′-[(1-phenylpyrazol-4-yl)methyl]spiro[1H-isobenzofuran-3,4′-piperidine]-1-carboxamide] | ≤ 50 nM
N#Cc1ccc2c(c1)C1(CCN(Cc3cnn(-c4ccccc4)c3)CC1)OC2C(N)=O (stereo not drawn) [Compound 203, 5-cyano-1′-[(1-phenylpyrazol-4-yl)methyl]spiro[1H-isobenzofuran-3,4′-piperidine]-1-carboxamide] | ≤ 50 nM
C[C@H]1C[C@@]2(CCN1Cc1cn(CCNS(=O)(=O)C3CC3)nn1)OCCc1ccc(Cl)cc12 [Compound 187] | ≤ 50 nM
Cc1ncc(-n2cc(CN3CCC4(CC3)OC(C(N)=O)c3ccc(Cl)cc34)cn2)cn1 (stereo not drawn) [Compound 209, 5-chloro-1′-[[1-(2-methylpyrimidin-5-yl)pyrazol-4-yl]methyl]spiro[1H-isobenzofuran-3,4′-piperidine]-1-carboxamide] | ≤ 50 nM
C[C@H]1C[C@@]2(CCN1Cc1cn(CC(C)(C)CS(N)(=O)=O)nn1)OCCc1ccc(Cl)cc12 [Compound 158] | ≤ 50 nM
CNc1cnc(Cn2cc(CN3CC[C@]4(C[C@@H]3C)OCCc3ccc(Cl)cc34)nn2)cn1 [Compound 162] | 50 to 500 nM
NC(=O)C1OC2(CCN(Cc3cnn(C4CCS(=O)(=O)C4)c3)CC2)c2cc(Cl)ccc21 (stereo not drawn) [Compound 219] | ≤ 50 nM
Cn1cc(CN2CCC3(CC2)OC(C(N)=O)c2ccc(Cl)cc23)c(=O)n(C)c1=O (stereo not drawn) [Compound 271] | ≥ 500 nM
C[C@H]1C[C@@]2(CCN1Cc1cnc(N)nc1)OCCc1ccc(Cl)cc12 [Compound 123] | ≤ 50 nM
Cc1ccc2c(c1)C1(CCN(Cc3cnn(CCS(C)(=O)=O)c3)CC1)OC2(C)C [Compound 289, 1,1,5-trimethyl-1′-[[1-(2-methylsulfonylethyl)pyrazol-4-yl]methyl]spiro[isobenzofuran-3,4′-piperidine]] | ≥ 500 nM
Cn1ccc(CN2CCC3(CC2)OC(C(N)=O)c2ccc(Cl)cc23)cc1=O (stereo not drawn) [Compound 269] | ≥ 500 nM
C[C@H]1C[C@@]2(CCN1Cc1cnn(C[C@H](O)C(C)(C)O)c1)OCCc1ccc(Cl)cc12 [Compound 125] | ≤ 50 nM
O=C(O)C1OC2(CCN(Cc3cnn(-c4ccccc4)c3)CC2)c2cc(Cl)ccc21 (stereo not drawn) [Compound 192, 5-chloro-1′-[(1-phenylpyrazol-4-yl)methyl]spiro[1H-isobenzofuran-3,4′-piperidine]-1-carboxylic acid] | ≥ 500 nM
CC(C)(O)[C@@H](O)Cn1cc(CN2CCC3(CC2)OC(C(N)=O)c2ccc(Cl)cc23)cn1 (stereo partly drawn) [Compound 277, 5-chloro-1′-[[1-[(2S)-2,3-dihydroxy-3-methyl-butyl]pyrazol-4-yl]methyl]spiro[1H-isobenzofuran-3,4′-piperidine]-1-carboxamide] | ≤ 50 nM
C[C@H]1C[C@@]2(CCN1Cc1cnn(CCS(C)(=O)=O)c1)OCC(F)(F)c1ccc(Cl)cc12 [Compound 135] | ≤ 50 nM
NC(=O)C1OC2(CCN(Cc3c[nH]c4cnccc34)CC2)c2cc(Cl)ccc21 (stereo not drawn) [Compound 248] | ≤ 50 nM
CN1C(=O)C2(CCN(Cc3cnn(CCS(N)(=O)=O)c3)CC2)c2ccccc21 [Compound 72, 2-(4-((I-methyl-2-oxospiro[indoline-3,4′-piperidin]-1′-yl)methyl)-1H-pyrazol-1-yl)ethane-1-sulfonamide] | ≥ 500 nM
NC(=O)Cn1cc(CN2CCC3(CC2)OC(C(N)=O)c2ccc(Cl)cc23)cn1 (stereo not drawn) [Compound 285] | 50 to 500 nM
CCn1cc(CN2CC[C@]3(C[C@@H]2C)OCCc2ccc(Cl)cc23)cn1 [Compound 121] | ≤ 50 nM
C[C@H]1C[C@@]2(CCN1Cc1cnn(CCO)c1)C(=O)Nc1ccc(Cl)cc12 [Compound 75] | 50 to 500 nM
CN1C(=O)C2(CCN(Cc3cnn(CCO)c3)CC2)c2cc(Cl)ccc21 [Compound 55] | ≥ 500 nM

Structure (SMILES) | IC50
C[C@H]1C[C@@]2(CCN1Cc1cn(Cc3cc(=O)[nH]c(C4CC4)n3)nn1)OCCc1ccc(Cl)cc12 [Compound 163] | 50 to 500 nM
C[C@H]1C[C@@]2(CCN1Cc1cn(CC3CC(=O)N(C)C3)nn1)OCCc1ccc(Cl)cc12 (stereo partly drawn) [Compound 145] | 50 to 500 nM
Cc1cc(C(=O)N[C@H]2C[C@H](Cn3cc(CN4CCC5(CC4)C(=O)N(C)c4ccc(Cl)cc45)cn3)C2)on1 [Compound 70] | ≥ 500 nM
CNC(=O)Cn1cc(CN2CCC3(CC2)C(=O)Nc2ccc(C)cc23)cn1 [Compound 28] | ≥ 500 nM
NC(=O)C1OC2(CCN(Cc3cnc4c(c3)COCC4)CC2)c2cc(Cl)ccc21 (stereo not drawn) [Compound 238] | ≥ 500 nM
CC(CO)(CO)Cn1cc(CN2CCC3(CC2)OC(C(N)=O)c2ccc(Cl)cc23)cn1 (stereo not drawn) [Compound 279, 5-chloro-1′-[[1-[3-hydroxy-2-(hydroxymethyl)-2-methyl-propyl]pyrazol-4-yl]methyl]spiro[1H-isobenzofuran-3,4′-piperidine]-1-carboxamide] | ≤ 50 nM
NC(=O)C1OC2(CCN(Cc3cnn(C4CC4)c3N)CC2)c2cc(Cl)ccc21 (stereo not drawn) [Compound 257] | 50 to 500 nM
NC(=O)C1OC2(CCN(Cc3cnn(-c4ccccc4)c3)CC2)c2cc(Cl)ccc21 (single isomer, unassigned) [Compound 194, 5-chloro-1′-[(1-phenylpyrazol-4-yl)methyl]spiro[1H-isobenzofuran-3,4′-piperidine]-1-carboxamide] | ≤ 50 nM
C[C@H]1C[C@@]2(CCN1Cc1cnn(CC(=O)N(C)C)c1)OCCc1ccc(Cl)cc12 [Compound 102] | 50 to 500 nM
CN1C(=O)C2(CCN(Cc3cnn(CC(C)(C)O)c3)CC2)c2cc(Cl)ccc21 [Compound 52, 5-chloro-1′-[[1-(2-hydroxy-2-methyl-propyl)pyrazol-4-yl]methyl]-1-methyl-spiro[indoline-3,4′-piperidine]-2-one] | ≤ 50 nM
NC(=O)C1OC2(CCN(Cc3cnn(-c4cccc(C(F)(F)F)c4)c3)CC2)c2cc(Cl)ccc21 (stereo not drawn) [Compound 212, 5-chloro-1′-[[1-[3-(trifluoromethyl)phenyl]pyrazol-4-yl]methyl]spiro[1H-isobenzofuran-3,4′-piperidine]-1-carboxamide] | ≤ 50 nM
CC1COC2(CCN(Cc3cnn(C)c3)CC2)c2ccccc21 (stereo not drawn) [Compound 89, 4-methyl-1′-[(1-methylpyrazol-4-yl)methyl]spiro[isochromane-1,4′-piperidine]] | ≥ 500 nM
CC(=O)Nc1ccc(CN2CCC3(CC2)C(=O)Nc2ccc(Cl)cc23)cc1 [Compound 6] | 50 to 500 nM
CC(CO)(CO)Cn1cc(CN2CCC3(CC2)C(=O)Nc2ccc(Cl)cc23)cn1 [Compound 2] | ≤ 50 nM
Cc1ccc2c(c1)C1(CCN(Cc3cnn(C)c3)CC1)OC2 [Compound 286, 5-methyl-1′-[(1-methylpyrazol-4-yl)methyl]spiro[1H-isobenzofuran-3,4′-piperidine]] | ≥ 500 nM
Cc1ncc(CN2CC[C@]3(C[C@@H]2C)OCCc2ccc(Cl)cc23)cn1 [Compound 112] | ≤ 50 nM
O=C1Nc2ccc(CC(F)F)cc2C12CCN(Cc1cn[nH]c1)CC2 [Compound 35] | ≥ 500 nM
Cc1c(CN2CCC3(CC2)OC(C(N)=O)c2ccc(Cl)cc23)cnn1-c1ccccc1 (stereo not drawn) [Compound 213] | 50 to 500 nM
CNC(=O)C1OC2(CCN(Cc3cnn(-c4ccccc4)c3)CC2)c2cc(OC)ccc21 (stereo not drawn) [Compound 297, 6-methoxy-N-methyl-1′-((1-phenyl-1H-pyrazol-4-yl)methyl)-3H-spiro[isobenzofuran-1,4′-piperidine]-3-carboxamide] | ≥ 500 nM
N#Cc1ccc(CN2CCC3(CC2)C(=O)Nc2ccc(Cl)cc23)c(F)c1 [Compound 15] | ≥ 500 nM
C[C@H]1C[C@@]2(CCN1Cc1cn(CC(=O)Nc3cn[nH]c3)nn1)OCCc1ccc(Cl)cc12 [Compound 186] | ≤ 50 nM
